Holding throughout (format): biochemical
Test [1] concerns the target T1, group V secreted PLA2 (sPLA2) (Homo sapiens, UniProt P39877).
T1 sequence (P39877 21-138): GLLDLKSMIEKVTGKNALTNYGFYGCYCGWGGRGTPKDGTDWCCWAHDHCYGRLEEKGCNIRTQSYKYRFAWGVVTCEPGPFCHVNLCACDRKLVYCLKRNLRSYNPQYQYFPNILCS
The experiment in a line: Traditional radioactive assay.

In test [2] the target is T1, group V secreted PLA2 (sPLA2). The experiment in a line: Lipidomics LC-MS mixed micelle PLA2 assay, sPLA2.
For test [3], the target named is group VIA calcium-independent (iPLA2) (Homo sapiens, UniProt O60733). The experiment in a line: Lipidomics LC-MS mixed micelle PLA2 assay, iPLA2. The note with it: for IC50: IC50, single phospholipid PAPC.

Molecules are shown by their SMILES.

Chain of group VIA calcium-independent (iPLA2) (O60733 whole entry): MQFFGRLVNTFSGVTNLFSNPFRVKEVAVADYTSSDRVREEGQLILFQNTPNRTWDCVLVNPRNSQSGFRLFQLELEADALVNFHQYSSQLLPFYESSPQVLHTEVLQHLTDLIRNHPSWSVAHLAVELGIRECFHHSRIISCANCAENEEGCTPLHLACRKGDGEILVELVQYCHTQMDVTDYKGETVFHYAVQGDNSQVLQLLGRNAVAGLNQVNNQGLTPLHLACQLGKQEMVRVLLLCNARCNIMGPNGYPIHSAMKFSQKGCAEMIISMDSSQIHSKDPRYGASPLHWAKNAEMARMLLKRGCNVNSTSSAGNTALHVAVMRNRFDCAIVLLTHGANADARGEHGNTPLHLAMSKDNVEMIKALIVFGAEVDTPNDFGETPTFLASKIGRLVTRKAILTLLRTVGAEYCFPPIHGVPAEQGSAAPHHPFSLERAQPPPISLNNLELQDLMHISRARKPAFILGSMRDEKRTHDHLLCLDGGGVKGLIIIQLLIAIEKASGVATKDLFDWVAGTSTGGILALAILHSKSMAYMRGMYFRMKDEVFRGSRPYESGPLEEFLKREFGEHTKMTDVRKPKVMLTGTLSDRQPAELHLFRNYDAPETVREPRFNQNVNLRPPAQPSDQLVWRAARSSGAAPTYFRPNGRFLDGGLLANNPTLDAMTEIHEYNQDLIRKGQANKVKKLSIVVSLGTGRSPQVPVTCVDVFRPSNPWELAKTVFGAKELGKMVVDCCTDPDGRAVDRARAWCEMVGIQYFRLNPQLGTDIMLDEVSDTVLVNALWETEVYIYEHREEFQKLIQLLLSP

For orientation: IC50 means the concentration that inhibits the measured activity by half. With `CCc1c(C(=O)C(N)=O)c2c(OCC(=O)O)cccc2n1Cc1ccccc1` [Ly315920], the IC50 in test [1] was 56 nM; in test [2] (IC50, single phospholipid PAPC, 16:0 LPC detected, positive ion mode), 104 nM; in test [2] (IC50, single phospholipid PAPG, 16:0 LPG detected, positive ion mode), 18000 nM; in test [2] (IC50, single phospholipid PAPG, free AA detected, negative ion mode), 22000 nM. Also, in test [2] (single phospholipid PAPC, free AA detected, negative ion mode), the “XI(50)” value is on record as 0.0002.
In the case of `CCCCCCCCSCC(=O)C(F)(F)F` [OTFP], the IC50 was 58 nM in test [3] (16:0 LPC detected, positive ion mode) and 34 nM in test [3] (free AA detected, negative ion mode). Moreover, the “greater inhibitor potency with PAPC as substrate versus PLPC” value in test [3] (PAPC versus PLPC substrate) was “approximately twofold”.

The values are drawn from publication PMC6398150 (Journal of Medicinal Chemistry, 2019).
